We go through three compounds from PMC9404985, “Development of Dicationic Bisguanidine-Arylfuran Derivatives as Potent Agents against Gram-Negative Bacteria” (Antibiotics, 2022).

Structures are written as SMILES.

For data set [1], the system named is P. aeruginosa (CCUG #59347). In words: Antibacterial activity against isolates (Omnilog, Biolog redox dye). It counts as cell-based, Pseudomonas aeruginosa. The settings on record: for EC50 / EC90: Pseudomonas aeruginosa, CCUG59347, ca-MH broth, 24 h, 37 °C; for Selectivity index P. aeruginosa (CCUG #59347): SI = ((EC50 MCF-7 + EC50 HepG2)/2)/EC50 bacterial strain. The procedure:
(§1) The antibacterial activities of eight compounds (1, 3, 4, 6, 8, 10, 16, and 17) were tested against 10 different isolates of Gram-negative bacteria from human and other sources, two E. coli (CCUG #67180 and CCUG #17620/ATCC #25922, control strain), two K. pneumoniae (CCUG #58547 and CCUG #225T), two P. aeruginosa (CCUG #17619 and CCUG #59347), two A. baumannii (CCUG #57035 and CCUG #57250), E. cloacae (CCUG #6323T), and E. hormaechei (CCUG #58962) in a 96-well plate format. […] Bacterial mass from the ten isolates grown overnight on horse blood or Mueller–Hinton agar plates was suspended in ca-MH and adjusted to a final inoculum cell density of ~5 × 10^5 CFU/mL. For all assays, Biolog redox dye A diluted 100× from the stock solution was used for measurements of all ten isolates (up to a total volume of 120 µL per well). All plates included one well per isolate with only inoculum and dye but no test compound (i.e., positive control) and one well per isolate with inoculum, dye and DMSO diluted 1667×, corresponding to the DMSO concentration in the wells with the highest concentration of test compound. All measurements were performed using the Omnilog microplate reader (Biolog, Hayward, CA, USA) where the 96-well plates were read at 15 min intervals for a total of 24 h at 37 °C.

For data set [2], the system named is E. coli MG1655 (CGSC #6300). Briefly: Antibacterial resazurin assay, laboratory strain. The following applies: for EC50 / EC90: Escherichia coli, MG1655, 18 h; for EC50: read-out: Eco EC50; for EC90: read-out: Eco EC90; for Selectivity index E. coli: mean of MCF-7 and HepG2 EC50 over bacterial EC50, laboratory strain. Background: Resazurin is reduced to fluorescent resorufin, in cell work by metabolically active cells.

The test system of another data set is E. coli (CCUG #67180). In words: Antibacterial activity against isolates (Omnilog, Biolog redox dye). It counts as cell-based, Escherichia coli. The settings on record: for EC90 / EC50: Escherichia coli, ca-MH broth, 24 h, 37 °C; for EC90: CCUG67180, 24 h; for EC50: CCUG67180; for Selectivity index E. coli (CCUG #67180): SI = ((EC50 MCF-7 + EC50 HepG2)/2)/EC50 bacterial strain. The method, then: (§2) The antibacterial activities of eight compounds (1, 3, 4, 6, 8, 10, 16, and 17) were tested against 10 different isolates of Gram-negative bacteria from human and other sources, two E. coli (CCUG #67180 and CCUG #17620/ATCC #25922, control strain), two K. pneumoniae (CCUG #58547 and CCUG #225T), two P. aeruginosa (CCUG #17619 and CCUG #59347), two A. baumannii (CCUG #57035 and CCUG #57250), E. cloacae (CCUG #6323T), and E. hormaechei (CCUG #58962) in a 96-well plate format. The compounds to test were 3-fold diluted in six steps in cation-adjusted Mueller-Hinton (ca-MH) broth to final concentrations spanning from 30 to 0.12 µM, i.e., a 1667–416,667 times dilution from the 50 mM stocks. Bacterial mass from the ten isolates grown overnight on horse blood or Mueller–Hinton agar plates was suspended in ca-MH and adjusted to a final inoculum cell density of ~5 × 10^5 CFU/mL. For all assays, Biolog redox dye A diluted 100× from the stock solution was used for measurements of all ten isolates (up to a total volume of 120 µL per well). All plates included one well per isolate with only inoculum and dye but no test compound (i.e., positive control) and one well per isolate with inoculum, dye and DMSO diluted 1667×, corresponding to the DMSO concentration in the wells with the highest concentration of test compound. All measurements were performed using the Omnilog microplate reader (Biolog, Hayward, CA, USA) where the 96-well plates were read at 15 min intervals for a total of 24 h at 37 °C.

Data set [3] concerns E. coli (CCUG #17620/ ATCC #25922). The description is as above. It is filed as cell-based, Escherichia coli. The settings on record: for EC50 / EC90: Escherichia coli, ca-MH broth, 24 h, 37 °C; for Selectivity index E. coli (CCUG #17620/ ATCC #25922): SI = ((EC50 MCF-7 + EC50 HepG2)/2)/EC50 bacterial strain. The method, then:
as §2

Another data set relates to Plasmodium falciparum. Set-up: method as in PMID 28674055. The settings on record: erythrocyte stage; cited from earlier work.
Data set [4] has as its system K. pneumoniae (CCUG #58547). Briefly: Antibacterial activity against isolates (Omnilog, Biolog redox dye). It is filed as cell-based, Klebsiella pneumoniae. The settings on record: for EC50 / EC90: Klebsiella pneumoniae, CCUG58547, ca-MH broth, 24 h, 37 °C; for Selectivity index K. pneumoniae (CCUG #58547): SI = ((EC50 MCF-7 + EC50 HepG2)/2)/EC50 bacterial strain. The method, then: as §1

In data set [5] the test system is A. baumannii (CCUG #57035). The description is as above. It is filed as cell-based, Acinetobacter baumannii. The settings on record: for EC50 / EC90: Acinetobacter baumannii, CCUG57035, ca-MH broth, 24 h, 37 °C; for Selectivity index A. baumannii (CCUG #57035): SI = ((EC50 MCF-7 + EC50 HepG2)/2)/EC50 bacterial strain. The method, then: as §1
Data set [6] deals with P. aeruginosa (CCUG #17619). The description is as above. It is filed as cell-based, Pseudomonas aeruginosa. The following applies: for EC50 / EC90: Pseudomonas aeruginosa, CCUG17619, ca-MH broth, 24 h, 37 °C; for Selectivity index P. aeruginosa (CCUG #17619): SI = ((EC50 MCF-7 + EC50 HepG2)/2)/EC50 bacterial strain. The procedure: as §2
A short description of data set [7]: Cytotoxicity assay (PrestoBlue) MCF-7. The settings on record: human, MCF-7 cells (breast cancer cell line), 24 h incubation. It counts as cell-based.
Another data set relates to Trypanosoma cruzi. More on the design: method as in earlier work. The settings on record: PubChem AID 1314398; read-out: effective against Trypanosoma cruzi; cited from earlier work.

For the compound `N=C(N)Nc1ccc(-c2ccc(-c3ccc(NC(=N)N)cc3Cl)o2)c(Cl)c1` [Compound 1, 2,5-Bis(2-chloro-4-guanidinophenyl)furan], in data set [1], the EC50 worked out at 5.3 µM; the EC90 (in general, the point of the concentration-response curve where the effect stands at 90%) was found to be 7.4 µM; the “Selectivity index P. aeruginosa (CCUG #59347)” value stood at 7.3. In addition, in data set [2], the EC50 is 64.8 µM, the EC90 came to 148 µM and the “Selectivity index E. coli” value was 0.6. In addition, in the data set with E. coli (CCUG #67180), the 90% effect level (EC90) was put at 3.8 µM, the EC50 came out at 3.2 µM and the “Selectivity index E. coli (CCUG #67180)” value turned out to be 12.2. In data set [3], the EC50 was 3.9 µM, the EC90 amounted to 6.3 µM and the “Selectivity index E. coli (CCUG #17620/ ATCC #25922)” value was determined as 9.9. Besides, the EC50 in the data set on Plasmodium falciparum was 590 nM. Besides, in data set [4], the EC50 was 5.2 µM, the EC90 is 8 µM and the “Selectivity index K. pneumoniae (CCUG #58547)” value worked out at 7.5. Moreover, in data set [5], the EC50 amounted to 4.7 µM, the EC90 was 6.3 µM and the “Selectivity index A. baumannii (CCUG #57035)” value (from here on “Selectivity index A. baumannii”) was 8.3. In data set [6], the EC50 was 4.8 µM, the EC90 was 6.7 µM and the “Selectivity index P. aeruginosa (CCUG #17619)” value was found to be 8.1. This compound had an EC50 at 24 h in data set [7] of 34.4 µM. The EC50 with Trypanosoma cruzi is 290 nM.
On to `N=C(N)Nc1ccc(-c2ccc(C(=O)N3CCc4cc(NC(=N)N)ccc43)o2)c(Cl)c1` [Compound 16, (5-(2-chloro-4-guanidinophenyl)furan-2-yl)(5-guanidinoindolin-1-yl)methanone], for which, in data set [1], the EC50 worked out at 18.1 µM, it took 24 µM to reach the 90% level (EC90) and the “Selectivity index P. aeruginosa (CCUG #59347)” value is given as 11.5. In [2], the EC50 was found to be 13.1 µM, the EC90 stood at 19 µM and the “Selectivity index E. coli” value was 16.0. In addition, in the data set with E. coli (CCUG #67180), the EC90 was found to be 27.1 µM, the EC50 turned out to be 23 µM and the “Selectivity index E. coli (CCUG #67180)” value was 9.1. For the same compound, in data set [3], the EC50 was determined as 13.6 µM, the 90% effect level (EC90) was put at 19.7 µM and the “Selectivity index E. coli (CCUG #17620/ ATCC #25922)” value is 15.4. Also, in [4], the EC50 was determined as 12.9 µM, the EC90 was 15.3 µM and the “Selectivity index K. pneumoniae (CCUG #58547)” value is on record as 16.2. Moreover, in data set [5], the EC50 was 16.5 µM, the EC90 was 24.4 µM and the “Selectivity index A. baumannii” value was 12.7. For the same compound, in data set [6], the EC50 worked out at 17.1 µM, the EC90 came to 22.9 µM and the “Selectivity index P. aeruginosa (CCUG #17619)” value stood at 12.2. In data set [7], the EC50 at 24 h worked out at 177 µM.
For the compound `N=C(N)Nc1ccc(-c2ccc(C(=O)N3CCc4cc(NC(=N)N)ccc43)o2)cc1` [Compound 17, (5-(4-guanidinophenyl)furan-2-yl)(5-guanidinoindolin-1-yl)methanone], in [1], the EC50 worked out at 17 µM, it took 23.9 µM to reach the 90% level (EC90) and the “Selectivity index P. aeruginosa (CCUG #59347)” value is listed as 11.4. In addition, in data set [2], the EC50 was 1.7 µM, the EC90 came to 4.3 µM and the “Selectivity index E. coli” value stood at 114.3. In addition, in the data set with E. coli (CCUG #67180), the 90% effect level (EC90) was put at 19.9 µM, the EC50 came to 14.2 µM and the “Selectivity index E. coli (CCUG #67180)” value turned out to be 13.7. Further, in data set [3], the EC50 is 16.4 µM, the 90% effect level (EC90) was put at 24 µM and the “Selectivity index E. coli (CCUG #17620/ ATCC #25922)” value is listed as 11.8. In data set [4], this compound returned an EC50 above 200 µM and a concentration for an effect of 90% (EC90) above 200 µM. Besides, in data set [5], the EC50 stood at 148 µM, the EC90 was above 200 µM and the “Selectivity index A. baumannii” value is 1.3. Also, in data set [6], the EC50 was found to be 22.9 µM, the EC90 is 27 µM and the “Selectivity index P. aeruginosa (CCUG #17619)” value turned out to be 8.5. Also, the EC50 at 24 h in data set [7] was 149 µM.
